Our source for the IC50 values is US20230113037A1 (Bayer Aktiengesellschaft, priority 2019, published 2023).

Like-named read-outs stand apart in the source and are kept apart here.

The target of experiment [1] is T1, AHR (Mus musculus, UniProt P30561).
T1 sequence (P30561 1-848 P471L/N533S/M589L): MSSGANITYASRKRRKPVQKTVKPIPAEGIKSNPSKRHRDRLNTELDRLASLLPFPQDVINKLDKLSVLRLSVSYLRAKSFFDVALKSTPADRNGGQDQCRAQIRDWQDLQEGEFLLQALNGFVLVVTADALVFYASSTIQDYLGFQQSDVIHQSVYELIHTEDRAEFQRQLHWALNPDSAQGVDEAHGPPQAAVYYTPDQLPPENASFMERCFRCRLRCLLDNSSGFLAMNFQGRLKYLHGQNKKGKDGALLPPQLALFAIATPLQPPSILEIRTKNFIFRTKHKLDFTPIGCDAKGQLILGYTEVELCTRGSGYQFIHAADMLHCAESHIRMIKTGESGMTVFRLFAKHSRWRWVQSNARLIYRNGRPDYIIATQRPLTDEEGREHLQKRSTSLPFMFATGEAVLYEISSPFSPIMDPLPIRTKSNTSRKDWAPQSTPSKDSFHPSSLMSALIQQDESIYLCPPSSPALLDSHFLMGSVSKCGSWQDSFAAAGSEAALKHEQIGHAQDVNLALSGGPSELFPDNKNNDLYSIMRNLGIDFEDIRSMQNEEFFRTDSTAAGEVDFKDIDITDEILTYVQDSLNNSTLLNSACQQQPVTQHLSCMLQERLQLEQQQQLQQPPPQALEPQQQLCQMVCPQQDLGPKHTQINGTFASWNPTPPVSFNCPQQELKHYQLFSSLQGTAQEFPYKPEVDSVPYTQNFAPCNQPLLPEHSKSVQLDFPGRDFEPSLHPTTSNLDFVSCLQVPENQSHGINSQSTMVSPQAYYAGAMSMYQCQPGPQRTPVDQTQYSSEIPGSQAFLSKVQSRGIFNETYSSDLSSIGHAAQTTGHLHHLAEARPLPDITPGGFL
Briefly: In vitro assay 3: antagonism in mouse cell line (AHR transactivation, firefly luciferase reporter, kynurenic acid prestimulated). It is filed as cell-based. The method in brief: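 Luminescence from an AHR-dependent DRE-luciferase reporter, stably integrated in mouse cells, quantifies blockade of kynurenic acid-driven activation. Unstimulated cells mark maximal inhibition; normalization uses both control types, and multiply tested compounds carry mean or median values.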

Experiment [2] concerns the target T2, AHR (Homo sapiens, UniProt P35869).
T2 construct: U87 MG glioblastoma cells (ATCC #HTB-14) endogenously expressing AHR; endogenous in cells; host or cells: U87 MG glioblastoma cells (ATCC #HTB-14)
T2 sequence (P35869 11-848): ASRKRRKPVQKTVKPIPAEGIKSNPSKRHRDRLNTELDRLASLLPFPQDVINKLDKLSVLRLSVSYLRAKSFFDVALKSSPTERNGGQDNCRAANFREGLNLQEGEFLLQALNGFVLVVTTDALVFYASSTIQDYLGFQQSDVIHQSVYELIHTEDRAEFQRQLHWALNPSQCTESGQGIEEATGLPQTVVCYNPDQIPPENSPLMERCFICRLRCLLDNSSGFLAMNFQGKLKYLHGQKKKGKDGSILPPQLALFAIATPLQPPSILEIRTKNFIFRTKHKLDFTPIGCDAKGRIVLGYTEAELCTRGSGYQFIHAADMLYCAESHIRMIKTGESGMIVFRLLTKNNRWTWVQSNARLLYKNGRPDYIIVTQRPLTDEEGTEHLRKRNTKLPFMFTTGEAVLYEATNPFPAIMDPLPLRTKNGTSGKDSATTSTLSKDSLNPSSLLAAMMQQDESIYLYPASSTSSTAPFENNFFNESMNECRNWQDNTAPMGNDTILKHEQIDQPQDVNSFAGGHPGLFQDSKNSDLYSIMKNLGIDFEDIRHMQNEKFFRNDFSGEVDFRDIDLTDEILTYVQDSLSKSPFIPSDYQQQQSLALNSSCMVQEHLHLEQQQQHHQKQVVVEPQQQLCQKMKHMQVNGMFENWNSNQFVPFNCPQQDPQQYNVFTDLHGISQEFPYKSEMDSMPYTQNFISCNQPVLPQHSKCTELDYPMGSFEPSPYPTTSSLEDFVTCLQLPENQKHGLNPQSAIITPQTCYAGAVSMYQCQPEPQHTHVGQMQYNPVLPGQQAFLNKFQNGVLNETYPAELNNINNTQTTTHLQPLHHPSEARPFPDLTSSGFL
Description: In vitro assay 1: antagonism in human cell line (AHR transactivation, firefly luciferase reporter, kynurenic acid prestimulated). In kind it is cell-based. The method in brief: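 Antagonism is measured against kynurenic acid prestimulation in U87 MG glioblastoma cells carrying stable DRE-luciferase and Renilla reporters. Positive inhibition control: 150 μM kynurenic acid with 5 μM staurosporine. Values are normalized to controls; repeats are averaged or given as medians.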

The mark [3] stands for this setting: Hepa 1c1c7 cells, 200 μM kynurenic acid, 20 hours, firefly luciferase reporter, read-out: AHR Antagonism Mouse IC50.
The mark [4] stands for this setting: AHR Antagonism Human IC50 [M], firefly luciferase reporter.
Where [5] appears, read: read-out: AHR Antagonism Mouse IC50, mouse Hepa 1c1c7 cells, 200 μM kynurenic acid, 20 hours.
[6] abbreviates: mouse Hepa 1c1c7 cells, 200 μM kynurenic acid, 20 hours, read-out: AHR Antagonism Mouse IC50.

For `CNCCNC(=O)[C@@H](C)Nc1nc2c(Br)cccc2c2nc(-c3cnn(C)c3)nn12` [Example 989, N^2-[7-bromo-2-(1-methyl-1H-pyrazol-4-yl)[1,2,4]triazolo[1,5-c]quinazolin-5-yl]-N-[2-(methylamino)ethyl]-D-alaninamide], the IC50 was determined as 399 nM on AHR [1] (setting [3]) and 5.18e-07 M at AHR [2] (setting [4]).

Take `Cc1ccccc1-c1nc2c3ccccc3nc(N[C@H]3CCCCNC3=O)n2n1` [Example 41, (3S)-3-{[2-(2-methylphenyl)[1,2,4]triazolo[1,5-c]quinazolin-5-yl]amino}azepan-2-one]: the results for the IC50 at AHR [1] (setting [5]) and at AHR [2] (AHR Antagonism Human IC50 [M]) were 1.7 nM and 2.12e-08 M, respectively.

Turning to `COc1ccc(-c2nc3c4cccc(C(=O)OC(C)C)c4nc(N[C@@H]4CCCCNC4=O)n3n2)cc1` [Example 653, propan-2-yl 2-(4-methoxyphenyl)-5-{[(3R)-2-oxoazepan-3-yl]amino}[1,2,4]triazolo[1,5-c]quinazoline-7-carboxylate], the IC50 is more than 20000 nM at AHR [1] (setting [6]) and 2.58e-07 M at AHR [2] (AHR Antagonism Human IC50 [M]).

In the case of `COc1cccc(-c2nc3c4ccccc4nc(N[C@@H](C(N)=O)[C@H](C)OCc4ccccc4)n3n2)c1` [Example 97, O-benzyl-N^2-[2-(3-methoxyphenyl)[1,2,4]triazolo[1,5-c]quinazolin-5-yl]-D-threoninamide], the IC50 on AHR [1] (setting [6]) turned out to be 84.1 nM; on AHR [2] (AHR Antagonism Human IC50 [M]), 1.56e-07 M.

On to `O=C1NCCNCC1Nc1nc2cccc(C3CC3)c2c2nc(-c3cccc(F)c3)nn12` (single isomer, unassigned) [Example 301, 6-{[10-cyclopropyl-2-(3-fluorophenyl)[1,2,4]triazolo[1,5-c]quinazolin-5-yl]amino}-1,4-diazepan-5-one], for which the figures for the IC50 on AHR [1] (setting [6]) and on AHR [2] (read-out: AHR Antagonism Human IC50) were 2240 nM and more than 2e-05 M, respectively.

For the molecule `COc1ccc(-c2nc3c4c(CO)cccc4nc(N[C@@H]4CCCCNC4=O)n3n2)cc1` [Example 862, (3R)-3-{[10-(hydroxymethyl)-2-(4-methoxyphenyl)[1,2,4]triazolo[1,5-c]quinazolin-5-yl]amino}azepan-2-one], the values for the 50% inhibitory concentration (IC50) at AHR [1] (setting [3]) and on AHR [2] (setting [4]) were 4.12 nM and 1.86e-09 M, respectively.

On to `Cc1cc(-c2nc3c4ccccc4nc(N[C@@H]4CCNC4=O)n3n2)cs1` [Example 356, (3R)-3-{[2-(5-methylthiophen-3-yl)[1,2,4]triazolo[1,5-c]quinazolin-5-yl]amino}pyrrolidin-2-one], for which the IC50 at AHR [1] (setting [6]) was determined as 30.4 nM; on AHR [2] (AHR Antagonism Human IC50 [M]) it was 2.71e-08 M.

As for `COc1ccc(-c2nc3c4cccc(OC5CCC5)c4nc(N[C@@H]4CCCCNC4=O)n3n2)cc1` [Example 998, (3R)-3-{[7-(cyclobutyloxy)-2-(4-methoxyphenyl)[1,2,4]triazolo[1,5-c]quinazolin-5-yl]amino}azepan-2-one], the IC50 worked out at 279 nM on AHR [1] (setting [3]) and 4.16e-07 M against AHR [2] (setting [4]).

For `CCCCNC(=O)CNc1nc2ccccc2c2nc(-c3cc(Cl)ccc3OC(F)(F)F)nn12` [Example 503, N-butyl-N^2-{2-[5-chloro-2-(trifluoromethoxy)phenyl][1,2,4]triazolo[1,5-c]quinazolin-5-yl}glycinamide], the figures for the IC50 at AHR [1] (setting [6]) and on AHR [2] (AHR Antagonism Human IC50 [M]) were more than 20000 nM and more than 2e-05 M, respectively.

For `CSc1ccccc1-c1nc2c3ccccc3nc(N[C@@H]3CCCCNC3=O)n2n1` [Example 478, (3R)-3-({2-[2-(methylsulfanyl)phenyl][1,2,4]triazolo[1,5-c]quinazolin-5-yl}amino)azepan-2-one], the 50% inhibitory concentration (IC50) at AHR [1] (setting [6]) was found to be 2.99 nM; against AHR [2] (AHR Antagonism Human IC50 [M]), 4.98e-08 M.

In the case of `COc1ccc(-c2nc3c4cccc(Br)c4nc(N[C@H](C)C(=O)N4CCOCC4)n3n2)cc1` [Example 773, (2R)-2-{[7-bromo-2-(4-methoxyphenyl)[1,2,4]triazolo[1,5-c]quinazolin-5-yl]amino}-1-(morpholin-4-yl)propan-1-one], the IC50 at AHR [1] (setting [6]) was 0.995 nM; against AHR [2] (AHR Antagonism Human IC50 [M]), 8.57e-10 M.

Consider `Cc1c(-c2nc3c4cccc(F)c4nc(N[C@@H]4CCCCNC4=O)n3n2)cnn1C` [Example 835, (3R)-3-{[2-(1,5-dimethyl-1H-pyrazol-4-yl)-7-fluoro[1,2,4]triazolo[1,5-c]quinaozlin-5-yl]amino}azepan-2-one], for which the values for the half-maximal inhibitory concentration (IC50) at AHR [1] (setting [3]) and against AHR [2] (setting [4]) were 18.5 nM and 1.54e-08 M, respectively.

For the molecule `O=C1NCCCC[C@H]1Nc1nc2ccccc2c2nc(-c3cnn(CCO)c3)nn12` [Example 601, (3R)-3-({2-[1-(2-hydroxyethyl)-1H-pyrazol-4-yl][1,2,4]triazolo[1,5-c]quinazolin-5-yl}amino)azepan-2-one], the results for the IC50 at AHR [1] (setting [6]) and against AHR [2] (AHR Antagonism Human IC50 [M]) were 158 nM and 2.96e-07 M, respectively.

As to `O=C1NCCNC[C@H]1Nc1nc2cccc(C(F)(F)F)c2c2nc(-c3cccc(F)c3)nn12` [Example 288, (6R)-6-{[2-(3-fluorophenyl)-10-(trifluoromethyl)[1,2,4]triazolo[1,5-c]quinazolin-5-yl]amino}-1,4-diazepan-5-one], the IC50 on AHR [1] (setting [5]) was 887 nM; on AHR [2] (AHR Antagonism Human IC50 [M]), more than 2e-05 M.

With `Cn1ccc(-c2nc3c4cccc(C(F)(F)F)c4nc(N[C@@H]4CCCCNC4=O)n3n2)n1` [Example 735, (3R)-3-{[2-(1-methyl-1H-pyrazol-3-yl)-7-(trifluoromethyl)[1,2,4]triazolo[1,5-c]quinazolin-5-yl]amino}azepan-2-one], the half-inhibitory concentration (IC50) on AHR [1] (setting [6]) is 9.2 nM; at AHR [2] (AHR Antagonism Human IC50 [M]) it was 7.1e-09 M.

For `O=C1NCCC[C@H]1Nc1nc2ccccc2c2nc(-c3ccccc3OC(F)F)nn12` [Example 472, (3R)-3-({2-[2-(difluoromethoxy)phenyl][1,2,4]triazolo[1,5-c]quinazolin-5-yl}amino)piperidin-2-one], the IC50 at AHR [1] (setting [6]) was 38.1 nM; against AHR [2] (AHR Antagonism Human IC50 [M]) it was 3.72e-08 M.

As for `O=C1NCCCC[C@H]1Nc1nc2ccccc2c2nc(-c3cnn(CC4CCC4)c3)nn12` [Example 597, (3R)-3-({2-[1-(cyclobutylmethyl)-1H-pyrazol-4-yl][1,2,4]triazolo[1,5-c]quinazolin-5-yl}amino)azepan-2-one], the IC50 stood at 7.57 nM at AHR [1] (setting [6]) and 1.16e-08 M against AHR [2] (AHR Antagonism Human IC50 [M]).

Regarding `CCCNC(=O)[C@@H](CC)Nc1nc2c(Br)cccc2c2nc(-c3ccc(Cl)cc3OC(F)F)nn12` [Example 797, (2R)-2-({7-bromo-2-[4-chloro-2-(difluoromethoxy)phenyl][1,2,4]triazolo[1,5-c]quinazolin-5-yl}amino)-N-propylbutanamide], the IC50 on AHR [1] (setting [3]) was 0.963 nM; at AHR [2] (setting [4]), 1.58e-09 M.

For the molecule `Cn1cc(-c2nc3c4c(C#N)cccc4nc(N[C@@H]4CCCCNC4=O)n3n2)cn1` [Example 247, 2-(1-methyl-1H-pyrazol-4-yl)-5-{[(3R)-2-oxoazepan-3-yl]amino}[1,2,4]triazolo[1,5-c]quinazoline-10-carbonitrile], the IC50 on AHR [1] (setting [6]) was found to be 591 nM; on AHR [2] (AHR Antagonism Human IC50 [M]) it was 3.08e-07 M.

In the case of `COc1cccc(-c2nc3c4cccc(C)c4nc(N[C@@H]4CCCCNC4=O)n3n2)c1` [Example 140, (3R)-3-{[2-(3-methoxyphenyl)-7-methyl[1,2,4]triazolo[1,5-c]quinazolin-5-yl]amino}azepan-2-one], the IC50 at AHR [1] (setting [6]) is 1.08 nM; on AHR [2] (AHR Antagonism Human IC50 [M]), 1.09e-09 M.
